Results from patent publication EP2705856A1, “Compounds for the treatment of neurodegenerative disorders” (Deutsches Zentrum für Neurodegenerative Erkrankungen e.V., priority 2012, dated 2014).
Read-outs that look alike come from different tables or passages of the source.

Columns and labels:
hFKBP12 = hFKBP12 (Homo sapiens, UniProt P62942); experiment: Protease-coupled PPIase assay, FKBP12; format: biochemical; conditions: Example 3; read-out: IC50 value, inhibition of PPlase activity of FKBP12
Chain of hFKBP12 (P62942 whole entry): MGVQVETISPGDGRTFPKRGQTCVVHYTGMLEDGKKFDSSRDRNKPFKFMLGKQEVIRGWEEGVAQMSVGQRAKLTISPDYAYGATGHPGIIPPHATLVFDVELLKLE
Description: The PPlase activity of hFKBP12 and hCypA was determined by using the protease-coupled PPlase assay as described by Fischer, H. Bang, B. Ludwig, K. Mann, J. Hacker, Mol. Microbiol. 1992, 6, 1375-1383. […] Then reaction was started by addition of 100 µg/mL of the isomer specific protease chymotrypsin, and the release of 4-nitroaniline was monitored by measuring the absorbance at 390 nm. […] Since tested PPlases vary in there catalytic efficiencies, different substrates has to be used to ensure equal rate constants of catalyzed cis/trans isomerization (Table 1). […] Table 1. Substrates for the respective PPlases

hCypA = hCypA (Homo sapiens, UniProt P62937); experiment: Protease-coupled PPIase assay, CypA; format: biochemical
Chain of hCypA (P62937 whole entry): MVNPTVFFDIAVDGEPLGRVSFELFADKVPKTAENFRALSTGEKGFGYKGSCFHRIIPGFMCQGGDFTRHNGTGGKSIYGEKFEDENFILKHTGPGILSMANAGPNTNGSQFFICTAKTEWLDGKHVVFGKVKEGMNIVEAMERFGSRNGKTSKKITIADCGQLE
Description: The PPlase activity of hFKBP12 and hCypA was determined by using the protease-coupled PPlase assay as described by Fischer, H. Bang, B. Ludwig, K. Mann, J. Hacker, Mol. Microbiol. 1992, 6, 1375-1383. To study the effect of compounds 7-10 on PPlase activity, 100 nM of each hFKBP and 5 nM of each hCyp, respectively and 40 µM peptide substrate were preincubated in the presence or absence of various inhibitor concentrations for 6 min at 10 °C in 35mM HEPES/NaCl buffer (pH 7.5). Then reaction was started by addition of 100 µg/mL of the isomer specific protease chymotrypsin, and the release of 4-nitroaniline was monitored by measuring the absorbance at 390 nm. To achieve better comparability of compounds 7-10 effects on PPlase activity, the concentrations of FKBP and Cyp were kept constant at 100 nM and 5 nM, respectively. Since tested PPlases vary in there catalytic efficiencies, different substrates has to be used to ensure equal rate constants of catalyzed cis/trans isomerization (Table 1). […] Table 1. Substrates for the respective PPlases

| Structure (SMILES) | IC50 (hFKBP12) | IC50 (hCypA; read-out: /C50-values, inhibition of PPlase activity of hCypA, Example 1, Figure 1: hCypA 5 nM, substrate suc-Ala-Ala-Pro-Phe-pNA) | IC50 (hCypA; read-out: IC50 value, inhibition of CypA, Example 3) |
| --- | --- | --- | --- |
| C[C@@H]1C[C@@H]([C@H](O)CC2CC(=O)N(CC(=O)N(C)C)C(=O)C2)C(=O)[C@@H](C)C1 [DM-CHX, N-(N,N-Dimethylcarboxamidomethyl)cycloheximid] | 36.9 ± 17.1 nM | – | – |
| C/C=C/C[C@@H](C)[C@@H](O)[C@H]1C(=O)N[C@@H](CC)C(=O)N(C)CC(=O)N(C)[C@@H](CC(C)C)C(=O)N[C@@H](C(C)C)C(=O)N(C)[C@@H](CC(C)C)C(=O)N[C@@H](C)C(=O)N[C@H](CO)C(=O)N(C)[C@@H](CC(C)C)C(=O)N(C)[C@@H](CC(C)C)C(=O)N(C)[C@@H](C(C)C)C(=O)N1C [[D-Ser^8]-CsA] | – | 8.3 ± 1.4 nM | 1.5 ± 0.4 nM |
